The values below come from patent US10357526B2, “Compositions for the treatment of infections caused by mite Demodex spp” (PROCAPS S.A., priority 2014, dated 2019).

This test concerns Demodex Spp. The test can be described thus: Evaluation of the solvent action on the survival of mites. The note with it: for Average life time of Acaro (mites) in the solvents: neat solvent. From the text: Before evaluating the miticide effect of each of the oils, miscibility and safety thereof on mites was studied.

Take `CCCCCCCCCCCCCC(=O)OC(C)C` [Isopropyl Myristate]: the “Average life time of Acaro (mites) in the solvents” value (“Average life time of Acaro (mites)” for short) came out at 3.37 h.
Consider `CCCCCCCC/C=C\CCCCCCCC(=O)OCCCCCCCCCC` [Cetiol V, decyl oleate], for which the “Average life time of Acaro (mites)” value was determined as 8 h. Further, under “within 8 hours”, the “Acaricidal activity of the diluent” value is given as “did not have acaricidal activity”.
With PEG-7 Glycerol Cocoate [Cetiol HE], the “Average life time of Acaro (mites)” value worked out at 0.08938 h.
Take `CCO` [Absolute Ethanol]: the “Average life time of Acaro (mites)” value is 0.03434 h.
